Among the data in ChEMBL document CHEMBL1201862, “PubChem BioAssay data set” (2004) are EC50, CC50 and IC50 values, retold here.

Each structure is given as a SMILES string. Activity calls are given as the source filed them. Cut-off read from the data, not from the text of the source, for most assays here: actives have a measured EC50 and inactives only a lower limit.

A short description of experiment [1]: Luminescence Cell-Based Dose Confirmation HTS to Identify Inhibitors of Platelet Dense Granule Release. [Related pubchem assays: 1663 (Primary HTS), 1678 (Summary of Project)]. The format is functional.
Experiment [2] has as its target Luciferin 4-monooxygenase (Photinus pyralis, UniProt P08659). The experiment in a line: inhibition of purified Photinus pyralis luciferase – biochemical, luminescence, dose response (AID 1891).
The nature of experiment [3]: viability of uninfected HEp-2 cells – cell-based, HTS, cytotoxicity control for RSV inhibitor project, dose response (AID 2410). The format is functional. The settings on record: human respiratory syncytial virus.
A further experiment addresses T1, Protein skinhead-1 (Caenorhabditis elegans, UniProt P34707).
T1 sequence (P34707 whole entry): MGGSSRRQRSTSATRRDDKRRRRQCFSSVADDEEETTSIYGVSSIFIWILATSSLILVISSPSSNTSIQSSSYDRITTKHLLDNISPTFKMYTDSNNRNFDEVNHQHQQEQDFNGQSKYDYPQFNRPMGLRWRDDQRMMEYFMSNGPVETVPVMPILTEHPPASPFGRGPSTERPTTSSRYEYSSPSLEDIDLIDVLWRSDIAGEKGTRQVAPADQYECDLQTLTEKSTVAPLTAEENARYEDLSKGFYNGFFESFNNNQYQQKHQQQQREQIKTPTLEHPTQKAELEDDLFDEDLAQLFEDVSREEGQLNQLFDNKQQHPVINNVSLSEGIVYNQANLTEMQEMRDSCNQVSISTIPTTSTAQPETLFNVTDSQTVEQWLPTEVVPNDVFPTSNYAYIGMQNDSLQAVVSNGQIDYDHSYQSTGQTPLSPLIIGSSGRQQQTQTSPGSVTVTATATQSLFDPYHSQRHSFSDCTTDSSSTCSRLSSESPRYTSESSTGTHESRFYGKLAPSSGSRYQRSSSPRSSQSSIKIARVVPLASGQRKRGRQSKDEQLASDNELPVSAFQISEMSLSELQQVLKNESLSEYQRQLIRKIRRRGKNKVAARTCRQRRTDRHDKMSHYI
The format is functional.

A further experiment has as its target Nonstructural protein 1 (Influenza A virus, UniProt Q194T2). In kind it is functional, Influenza A virus (A/California/07/2009(H1N1)).
A short description of experiment [4]: Luminescence Cell-Based Dose Response HTS to Identify Activators of Luciferase Translation or Activity in H4 […] Cells. [Related pubchem assays: 1829 (Project Summary), 1814 (Primary HTS)]. In kind it is functional.
Another experiment has as its system H4. The experiment in a line: Luminescence Cell-Based Dose Response HTS to Identify Activators of 5'UTR Stem-Loop Driven Prion Protein mRNA Translation in H4 Neuroglioblastoma Cells. [Related pubchem assays: 1829 (Project Summary), 1814 (Primary HTS)]. In kind it is functional. The conditions noted are these: Homo sapiens.
The nature of experiment [5]: Luminescence Cell-Based Dose Confirmation HTS to Identify Activators of 5'UTR Stem-Loop Driven Alpha-Synuclein mRNA Translation in H4 Neuroglioblastoma Cells. [Related pubchem assays: 1829 (Project Summary), 1814 (Primary HTS)]. In kind it is functional.
Experiment [6] is described as follows: NIH-3T3 fibroblast cytotoxicity, dose response, cytotoxicity control, cell-based, fluorescence, Alamar Blue, secondary assay (AID 2327).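 Note: NIH-3T3 mouse fibroblasts cultured with fluconazole at 8 µg/mL.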 In kind it is functional.
Experiment [7] is described as follows: luciferase reporter signal suppression in cells – H4 neuroglioma cells, luminescence, dose response (AID 1990). In kind it is functional, cell-based. In general terms: A reporter such as luciferase makes a cellular process visible.
Experiment [8] in a line: Luminescence Cell-Based Dose Response HTS to Identify Inhibitors of 5'UTR Stem-Loop Driven Prion Protein mRNA Translation in H4 Neuroglioblastoma Cells. [Related pubchem assays: 1827 (Project Summary), 1813 (Primary HTS)]. In kind it is functional.
Experiment [9] can be described thus: alpha-synuclein stem-loop luciferase translation blockers – H4 neuroglioma cells, luminescence, confirmation (AID 1988). The format is functional, cell-based.
Experiment [10] is described as follows: NIH3T3 cell viability loss – ATP luminescence, mouse fibroblasts, counter-screen, dose response (AID 2010).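 Note: cells exposed to compound for about 90 hours before reading.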 The format is functional, cell-based.
Experiment [11] can be described thus: Trypanosoma cruzi growth suppression in host cells – NIH3T3 host cells, beta-gal luminescence, confirmation (AID 2044).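 Note: intracellular parasites grown in NIH/3T3 mouse fibroblasts as host cells; luminescent beta-galactosidase reporter signal from transgenic T. cruzi replicating inside host cells; inhibitors lower the luminescence signal.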 The format is functional, cell-based.
In experiment [12] the target is T2, Rac GTPase-activating protein 1 (Homo sapiens, UniProt Q9H0H5).
T2 sequence (Q9H0H5 whole entry): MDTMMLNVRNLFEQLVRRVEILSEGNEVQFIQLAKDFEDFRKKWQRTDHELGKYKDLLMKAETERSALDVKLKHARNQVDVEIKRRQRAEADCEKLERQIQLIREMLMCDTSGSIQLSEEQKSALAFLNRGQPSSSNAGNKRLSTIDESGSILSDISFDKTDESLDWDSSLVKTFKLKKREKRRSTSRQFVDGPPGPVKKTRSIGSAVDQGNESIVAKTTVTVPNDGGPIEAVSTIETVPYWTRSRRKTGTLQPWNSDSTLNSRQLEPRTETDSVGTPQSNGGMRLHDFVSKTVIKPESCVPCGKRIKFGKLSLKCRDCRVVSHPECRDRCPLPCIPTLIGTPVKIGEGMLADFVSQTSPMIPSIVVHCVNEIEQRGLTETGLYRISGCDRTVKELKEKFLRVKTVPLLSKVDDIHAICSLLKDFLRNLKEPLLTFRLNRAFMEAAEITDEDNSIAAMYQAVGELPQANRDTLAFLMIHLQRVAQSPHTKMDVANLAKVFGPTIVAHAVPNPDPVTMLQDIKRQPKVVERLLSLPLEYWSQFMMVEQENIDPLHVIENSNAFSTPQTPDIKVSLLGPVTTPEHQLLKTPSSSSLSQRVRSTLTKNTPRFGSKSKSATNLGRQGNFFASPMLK
The experiment in a line: blockers of MgcRacGAP-driven Rac1 GTP hydrolysis – biochemical, ADP Hunter fluorescence, primary and confirmatory, confirmation (AID 624330). In kind it is functional.

As a reminder, the EC50 is the concentration giving half of the maximal effect. What is called CC50 is the concentration at which the toxic effect on the cells reaches its halfway point. One may read the IC50 as the point on the concentration scale where inhibition reaches its midpoint.

Regarding `O=C(Nc1ccccc1)c1cnc2ccccc2n1`, the 50% effective concentration (EC50) in experiment [1] and in [2] was > 112 µM (not active) each time.

Take `O=C(NCCOc1ccc(Cl)cc1)c1ccc2ccccc2n1`: the CC50 in [3] is 20.9 µM (active). Moreover, the IC50 at Protein skinhead-1 was > 100 µM (inactive).

Consider `O=C1c2ccccc2-c2onc3c(N4CCN(CCO)CC4)cc(N4CCN(C(=O)c5ccco5)CC4)c1c23`, for which the IC50 on Nonstructural protein 1 is 9.93 µM (active).

Turning to `CCCc1ccc(Oc2cc(Cl)nc(N)n2)cc1`, the EC50 is 11.8 µM (active) in experiment [4], 72 µM (active) with H4 and 8.77 µM (active) in experiment [5].

Take `Cc1ccc(S(=O)(=O)NCC2CCC(C(=O)NCc3ccc4c(c3)OCO4)CC2)cc1` (stereo not given): the concentration giving a half-maximal response (EC50) in experiment [1] and in experiment [2] was > 112 µM (not active) in each case.

Consider `c1ccc(NCc2nc(-c3ccccc3)no2)cc1`, for which the figures for the EC50 (in [4]; in the experiment on H4; in experiment [5]) were 21.4 µM (active), 15.8 µM (active) and 3.25 µM (active), respectively.

Turning to `COc1ccc(-c2n[nH]c(S)n2)cc1`, in experiment [1], the EC50 was > 112 µM (not active).

Regarding `Cc1cc(C)cc(OCc2ccc(C(=O)N3N=C(C(F)F)CC3(O)C(F)F)o2)c1` (stereo not given), the EC50 in [6] was 120 µM (active).

`FCCCOc1ccc(-c2nccc(-c3ccccn3)n2)cc1`: the IC50 at Protein skinhead-1 was 17.9 µM (active).

For the compound `OC1CN=C2C=CC=CN2C1` (stereo not given), the concentration for a half-maximal effect (EC50) in experiment [1] and in [2] was > 112 µM (not active) in each case.

For `CC(=O)Nc1cccc(Oc2cc(C#N)c(C#N)cc2N2CCCCCC2)c1`, the EC50 in experiment [7] is 14.6 µM (active); in experiment [8] it was > 120 µM (not active); in [9], > 120 µM (not active).

`NC(Cc1nc(-c2ccc(Br)cc2)cs1)=NO`: the EC50 in experiment [6] is > 150 µM (inactive).

As to `COc1cc(NC(=O)CN2C(=O)C(c3ccccc3)=NC23CCCCCC3)cc(OC)c1`, the EC50 in [1] and in experiment [2] was > 112 µM (not active) each time.

Turning to `COc1ccc(C(c2sc3nc(C)nn3c2O)N2CCCCC2)cc1` (stereo not given), the half-maximal effective concentration (EC50) in experiment [1] and in [2] was > 112 µM (not active) each time.

`CC(C)CNc1nc(N)c([N+](=O)[O-])c(NCc2ccccc2)n1`: the values for the 50% effective concentration (EC50) in [7], in experiment [8] and in [9] were 16.3 µM (active), > 120 µM (not active) and 22.7 µM (active), respectively.

`CN1CCc2c(sc3c2C(=O)NC(c2ccccc2)N3)C1` (stereo not given): on Protein skinhead-1, the IC50 is > 100 µM (inactive).

`CCOC(=O)C1(C)C(N=Nc2ccc(Cl)cc2)=C(O)C(=O)N1c1ccccc1` (stereo not given): the IC50 at Protein skinhead-1 is > 100 µM (inactive).

Consider `Cc1nc(S)c(C#N)c(C)c1CCC#N`, for which the concentration for a half-maximal effect (EC50) in [1] is > 112 µM (not active).

For `CONC=NC(=O)NOCc1ccc(Cl)cc1Cl`, the EC50 in [1] and in [2] was > 112 µM (not active) in each case.

For the compound `CC(C(=O)N(C)Cc1ccccc1)N1CCN(C/C=C/c2ccccc2)CC1` (stereo not given), the values for the 50% effective concentration (EC50) in experiment [10] and in experiment [11] were > 30 µM (not active) and 0.164 µM (active), respectively. The half-maximal inhibitory concentration (IC50) in experiment [12] was 80.2 µM (active).

As to `Cc1ccccc1NC(=O)CSc1nn2c(=O)c(C)nnc2s1`, at Nonstructural protein 1, the IC50 is 10.5 µM (active).

`Fc1ccc(Nc2cccc3nccnc23)cc1`: at Protein skinhead-1, the half-maximal inhibitory concentration (IC50) was 34.1 µM (active).

As for `Nc1ccc(N2CCOCC2)c(Cl)c1`, the IC50 in experiment [12] was 38.2 µM (active).

Turning to `COc1ccccc1NC(=O)Nc1nc(CC(=O)Nc2ccc(N(C)C)cc2)cs1`, at Nonstructural protein 1, the IC50 is 26.9 µM (active).

On to `O=C(Nc1ccccc1Oc1ccccc1)c1cccs1`, for which the IC50 on Protein skinhead-1 is > 100 µM (inactive).

For `C/C=C/c1ccc(OCCCCN2CCN(CC)CC2)c(OC)c1`, the IC50 in experiment [12] is 82 µM (active).

For the compound `Cc1cccc(N2CCN(S(=O)(=O)c3ccc4c(c3)C(C)(C)C(=O)N4C)CC2C)c1` (stereo not given), the EC50 in experiment [1] and in [2] was > 112 µM (not active) in each case.

As to `Cc1ccc(C(=O)CC(=O)c2ccccc2)cc1`, the EC50 in experiment [4] is 1.75 µM (active); in the experiment with H4 it was > 120 µM (not active); in experiment [5] it was 5.35 µM (active).

`CCCCn1c(N)c(N(CCC(C)C)C(=O)C2CC(=O)N(c3ccc(OC)cc3OC)C2)c(=O)[nH]c1=O` (stereo not given): the concentration for a half-maximal effect (EC50) in [1] and in experiment [2] was > 112 µM (not active) throughout.

As for `CSc1nc(N(C)NC(=O)c2ccc(F)cc2)c2ccccc2n1`, the results for the EC50 in [7], in experiment [8] and in experiment [9] were 10.6 µM (active), 0.258 µM (active) and < 0.195 µM (active), respectively.

As for `CCN(CC(=O)Nc1cc(Cl)ccc1OC)CC(=O)NC1CCS(=O)(=O)C1` (stereo not given), in experiment [12], the IC50 was 95.7 µM (active).

As for `CCCn1c(N)c(C(c2ccc(OC)cc2)N2CCN(c3ccccc3)CC2)c(=O)[nH]c1=O` (stereo not given), the IC50 on Protein skinhead-1 is > 100 µM (inactive).

With `CN(C)c1ccc(C=NN2CCCCCC2)cc1`, at Nonstructural protein 1, the 50% inhibitory concentration (IC50) was 48.1 µM (active).

Regarding `O=C(Sc1ccc(Cl)cc1)c1ccccn1`, the half-inhibitory concentration (IC50) at Protein skinhead-1 is 44.5 µM (active).

As for `COc1cc2sc3cc(NCc4ccc(C)o4)ccc3c(=O)c2cc1OC`, on Protein skinhead-1, the IC50 was > 100 µM (inactive).

Turning to `N#CC1(Nc2ccc(-c3ccc(NC4(C#N)CCCC4)cc3)cc2)CCCC1`, the IC50 in experiment [12] was 10.3 µM (active).

Consider `Cc1nonc1C(=O)N/N=C/c1ccc(O)cc1`, for which the 50% effective concentration (EC50) in experiment [1] is 0.172 µM (active); in experiment [2], 0.916 µM (active). The IC50 in [12] was 95.6 µM (active).

As for `Cc1cc(S(=O)(=O)N2CCCC2)ccc1OCC(=O)N1CCOCC1`, the half-maximal effective concentration (EC50) in experiment [7], in [8] and in experiment [9] was > 120 µM (not active) each time.

As to `Cc1nn(-c2ccccc2)c(O)c1/C=N/N(C)c1ccccc1`, the IC50 in experiment [12] is 19.3 µM (active).

For `COc1ccc(/C=N/NC(=O)CN2CCCCCCC2)c(C)c1C`, the 50% inhibitory concentration (IC50) in experiment [12] is 139 µM (active).

Take `N#Cc1c(O)nsc1Nc1ccc(Cl)cc1`: the 50% inhibitory concentration (IC50) in experiment [12] was 79.9 µM (active).

Regarding `Nc1ccc2c(c1)[nH]c(=O)c1cc(N)ccc12`, the half-inhibitory concentration (IC50) in experiment [12] was 10.9 µM (active).

As for `NS(=O)(=O)c1ccc(Nc2nc(-c3ccc(O)cc3)cs2)cc1`, the IC50 in experiment [12] is 19.9 µM (active).
